{"source": "patent US9889183B2", "about": "“PKC activators and anticoagulant in regimen for treating stroke” (BLANCHETTE ROCKEFELLER NEUROSCIENCES INSTITUTE, priority 2010, dated 2018)", "key": {"PKCε": {"biological_target": "T1, PKCε (Homo sapiens, UniProt Q02156)", "T1 construct": "purchased Calbiochem", "T1 sequence (Q02156 1-737)": "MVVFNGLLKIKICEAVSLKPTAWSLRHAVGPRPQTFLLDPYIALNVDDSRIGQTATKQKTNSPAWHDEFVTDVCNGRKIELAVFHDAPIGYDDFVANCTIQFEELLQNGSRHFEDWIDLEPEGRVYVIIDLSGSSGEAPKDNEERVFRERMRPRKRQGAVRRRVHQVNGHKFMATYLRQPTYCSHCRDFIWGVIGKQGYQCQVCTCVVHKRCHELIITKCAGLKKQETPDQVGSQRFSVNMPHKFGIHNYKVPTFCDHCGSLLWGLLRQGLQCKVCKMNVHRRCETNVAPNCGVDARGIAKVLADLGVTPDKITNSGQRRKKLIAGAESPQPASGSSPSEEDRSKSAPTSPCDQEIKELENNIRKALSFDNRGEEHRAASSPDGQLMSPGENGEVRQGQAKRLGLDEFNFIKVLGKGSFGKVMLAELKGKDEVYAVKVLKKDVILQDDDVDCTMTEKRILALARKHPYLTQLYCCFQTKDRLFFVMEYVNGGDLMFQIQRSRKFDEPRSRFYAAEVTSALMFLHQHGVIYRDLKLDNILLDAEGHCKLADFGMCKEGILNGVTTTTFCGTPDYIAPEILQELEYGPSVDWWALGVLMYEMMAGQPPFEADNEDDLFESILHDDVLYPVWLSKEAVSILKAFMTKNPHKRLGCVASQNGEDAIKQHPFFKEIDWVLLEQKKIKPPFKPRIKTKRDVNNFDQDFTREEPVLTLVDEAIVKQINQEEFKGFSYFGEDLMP", "experiment": "PKC assay with purified PKCε", "assay_type": "biochemical", "conditions": "for activation of purified PKCε (in words): FIG. 7, methyl esters", "description": "PKC assay. Recombinant PKC (1 ng of PKCα or PKCε isoform) was mixed with BR-101 (DCP-LA) in the presence of 10 micromolar histones, 5 mM CaCl2, 1.2 μg/μl phosphatidyl-L-serine, 0.18 μg/μl 1,2-dioctanoyl-sn-glycerol (DAG), 10 mM MgCl2, 20 mM HEPES (pH 7.4), 0.8 mM EDTA, 4 mM EGTA, 4% glycerol, 8 μg/ml aprotinin, 8 μg/ml leupeptin, and 2 mM benzamidine. 0.5 micro Ci[^γ32P]ATP was added. The incubation mixture was incubated for 15 min at 37 degrees in a total volume of 10 microliters. The reaction was stopped by spotting the reaction mixtures on 1×2 cm strips of cellulose phosphate paper (Whatman P81) and immediately washing twice for 1 hr in 0.5% H3PO4. The cellulose phosphate strips were counted in a scintillation counter. In some experiments, phosphatidylserine, diacylglycerol, and/or calcium were removed.\nDHA methyl ester was purchased from Cayman Chemical (Ann Arbor, Me.). PKC isozymes were from Calbiochem (San Diego, Calif.). Purified PKCε was purchased from Calbiochem.\n(§1) Protein kinase C assay. Rat hippocampal cells were cultured and scraped in 0.2 ml homogenization buffer (20 mM Tris-HCl, pH 7.4, 50 mM NaF, 1 μg/ml leupeptin, and 0.1 mM PMSF) and homogenized by sonication a Marsonix microprobe sonicator (5 sec, 10 W). To measure PKC, 10 μl of cell homogenate or purified PKC isozyme (purchased from Calbiochem) was incubated for 15 min at 37° C. in the presence of 10 μM histones, 4.89 mM CaCl2, 1.2 μg/μl phosphatidyl-L-serine, 0.18 μg/μl 1,2-dioctanoyl-sn-glycerol, 10 mM MgCl2, 20 mM HEPES (pH 7.4), 0.8 mM EDTA, 4 mM EGTA, 4% glycerol, 8 μg/ml aprotinin, 8 μg/ml leupeptin, and 2 mM benzamidine. […][^γ32P]ATP was added and ^32P-phosphoprotein formation was measured by adsorption onto phosphocellulose as described previously. Nelson and Alkon, J. Neurochemistry (1995), vol. 65, pp. 2350-2357. For measurements of activation by BR-101 (DCP-LA) and similar compounds. PKC activity was measured in the absence of diacylglycerol and phosphatidylserine and PKC δ, ε, η, and μ were measured in the absence of added EGTA and CaCl2, as described by Kanno et al. (J. Lipid Res. 2006, vol. 47, pp. 1146-1150). Low concentrations of Ca^2+ are used because high Ca^2+ interacts with the PKC phosphatidylserine binding site and prevents activation. For measurements of bryostatin activation, 1,2-diacylglycerol was omitted unless otherwise stated.\nTo determine their PKC isozyme specificity, fatty acid derivatives were preincubated with purified PKC for five minutes and the PKC activity was measured radiometrically."}, "PKC": {"system": "PKC", "conditions": "cited from earlier work"}, "[1]": {"system": "squamous cell carcinoma and melanoma", "conditions": "used topically; cited from earlier work"}, "[2]": {"system": "global cerebral ischemia/hypoxia in rats", "experiment": "Global ischemia model, water maze (Examples 10-11)", "assay_type": "in vivo, rat", "protocol": "Rats (male, Wistar, 200-225 g) were randomly divided into 6 groups (8 each) and housed for 1 week before experimentation. […] The global ischemia model used to induce vascular memory impairment was two-vessel occlusion combined with a short term systemic hypoxia. Ligation of the bilateral common carotid arteries was performed under anesthesia (pentobarbital, 60 mg/kg, i.p.). After a one-week recovery from the surgery, rats were exposed to 14-min hypoxia (5% oxygen in a glass jar). Control rats (sham operated and vehicle controls) were subjected to the same incision to isolate both common carotid arteries and to 14-min air (in the glass jar). Body temperature was kept at 37-37.5° C. using a heating light source during the surgical procedure and until the animals were fully recovered."}, "[3]": {"system": "PKC in H19-7/IGF-IR cells", "experiment": "PKC activity over time in rat H19-7/IGF-IR hippocampal cells", "assay_type": "cell-based", "conditions": "treated cells, 8 hours; data not shown", "description": "Cell culture. Rat hippocampal H19-7/IGF-IR cells (ATCC, Manassas, Va.) were plated onto poly-L-lysine coated plates and grown at 35° C. in DMEM/10% FCS for several days until about 50% coverage was obtained. The cells were then induced to differentiate into a neuronal phenotype by replacing the medium with 5 ml N2 medium containing 10 ng/ml basic fibroblast growth factor at 39° C. and grown in T-75 flasks at 37° C. Human SH-SY5Y neuroblastoma cells (ATCC) were cultured in 45% F12K/45% MEM/10% FCS. Mouse N2A neuroblastoma cells were cultured in DMEM/10% FCS without glutamine. Rat hippocampal neurons from 18-day-old embryonic Sprague Dawley rat brains were plated on 12- or 96-well plates coated with poly-D-lysine (Sigma-Aldrich, St. Louis, Mo.) in B-27 neurobasal medium containing 0.5 mM glutamine and 25 μM glutamate (Invitrogen, Carlsbad, Calif.) and cultured for three days in the medium without glutamate. The neuronal cells were grown under 5% CO2 in an incubator maintained at 37° C. for 14 days.\nas §1\nPKC activators that bind to the diacylglycerol binding site, including bryostatin, gnidimacrin, and phorbol esters, produce a transient activation of PKC activity, followed by a prolonged downregulation. Nelson et al., Trends in Biochem. Sci. (2009), vol. 34, pp. 136-145. This was confirmed in cultured rat hippocampal cells. Incubation of rat H19-7/IGF-IR cells with (0.04 nM and 0.2 nM) bryostatin produced a 2-fold activation that lasted 30 min, followed by a 20% downregulation that returned to baseline by 24 hours (data not shown). […] This sustained activation was only observed in primary neurons."}, "Aβ in COS cells": {"system": "Aβ in COS cells", "conditions": "1 μM, cultured COS cells, 8 hours; cited from earlier work"}, "[4]": {"conditions": "non-ischemic rats, same regimens"}}, "data": [{"compound": "CCCCCC1OC1C/C=C\\CCCCCCCC(=O)OC", "note": "(stereo in doubt) [BR-117, vernolic acid methyl ester]", "values": [{"measurement": "effect on PKC", "setting": "PKCε; FIG. 8", "result": "little or no effect"}]}, {"compound": "CCCCCCCC(=O)O[C@H]1/C(=C/C(=O)OC)C[C@H]2C[C@H](CO)OC(=O)C[C@H](O)C[C@@H]3CCC[C@H](C[C@@H]4CCO[C@H](/C=C/C(C)(C)[C@]1(O)O2)O4)O3", "note": "[Analog 1]", "values": [{"measurement": "affinity for PKC (in words)", "setting": "PKC", "result": "highest affinity"}]}, {"compound": "CCC1CC1CC1CC1CC1CC1CCCCCCCCO", "note": "(stereo not shown) [BR-104, linolenic alcohol tricyclopropane]", "values": [{"measurement": "effect on PKC", "setting": "PKCε; FIG. 8", "result": "little or no effect"}]}, {"compound": "CCCCCC1CC1CC1CC1CCCCCCCCO", "note": "(stereo not shown) [BR-105, linoleic alcohol dicyclopropane]", "values": [{"measurement": "effect on PKC", "setting": "PKCε; FIG. 8", "result": "little or no effect"}]}, {"compound": "CCCCC[C@H]1O[C@H]1CC1CC1CCCCCCCC(=O)OC", "note": "(stereo partly shown) [BR-109, vernolic acid methyl ester cyclopropane]", "values": [{"measurement": "concentrations at which PKCε is inhibited", "setting": "PKCε; FIG. 8", "result": "above 1 μM"}]}, {"compound": "CCC1CC1CC1CC1CC1CC1CC1CC1CC1CC1CCCC(=O)OC", "note": "(stereo not shown) [BR-114]", "values": [{"measurement": "concentration needed to activate PKC relative to BR-101 (DCP-LA)", "setting": "PKCε", "result": "approximately 100 times lower"}, {"measurement": "activation of purified PKCε (in words)", "setting": "PKCε", "result": "activated purified PKCε to a similar extent"}]}, {"compound": "CCCCCC1CC1CC1CC1CC1CC1CC1CC1CCCC(=O)OC", "note": "(stereo not shown) [BR-115, methyl 4-(2-((2-((2-((-pentylcyclopropyl)methyl)cyclopropyl)methyl)cyclopropyl)methyl)cyclopropyl)butanoate methyl ester]", "values": [{"measurement": "concentration needed to activate PKC relative to BR-101 (DCP-LA)", "setting": "PKCε", "result": "approximately 100 times lower"}, {"measurement": "activation of purified PKCε (in words)", "setting": "PKCε", "result": "activated purified PKCε to a similar extent"}]}, {"compound": "C/C=C(/C)C(=O)O[C@H]1C(C)=C[C@]23C(=O)[C@@H](C=C(CO)[C@@H](O)[C@]12O)[C@H]1[C@@H](C[C@H]3C)C1(C)C", "note": "[Ingenol-3-angelate]", "values": [{"measurement": "antitumor activity", "setting": "[1]", "result": "exhibits antitumor activity"}]}, {"compound": "Cc1ccc(OCC(=O)O)c(OCC(=O)O)c1", "note": "[MCDA, 4-Methylcatechol-diacetic acid]", "values": [{"measurement": "water maze spatial learning, ischemic treated vs ischemic rats", "setting": "[2]; bryostatin-1 20 μg/m^2 i.v. 2 doses/week, 10 doses, MCDA 1.0 mg/kg i.p. daily 5 weeks, start 24 hours after hypoxia", "result": "improved the learning"}, {"measurement": "target quadrant ratio in probe test, drug-only vs control rats", "setting": "[2]; [4]", "result": "no differences"}, {"measurement": "water maze spatial learning, drug-only vs control rats", "setting": "[2]; [4]", "result": "no differences"}, {"measurement": "target quadrant ratio in probe test, ischemic treated vs control rats", "setting": "[2]; same regimens", "result": "no differences"}, {"measurement": "target quadrant ratio in probe test, ischemic treated vs ischemic rats", "setting": "[2]; same regimens", "result": "group differences"}, {"measurement": "water maze spatial learning, ischemic treated vs control rats", "setting": "[2]; same regimens", "result": "remained significant"}]}, {"compound": "CCCCCCCCCCCCCC(=O)O[C@@H]1[C@@H](C)[C@@]2(O)[C@@H](C=C(CO)C[C@]3(O)C(=O)C(C)=C[C@@H]23)[C@@H]2C(C)(C)[C@]12OC(C)=O", "note": "[PMA, phorbol 12-myristate 13-acetate]", "values": [{"measurement": "PKC activity at 8 hours (downregulation)", "setting": "[3]", "result": "strongly downregulated"}]}, {"compound": "CCCC(=O)O[C@@H]1[C@@H](C)[C@@]2(O)[C@@H](C=C(CO)C[C@]3(O)C(=O)C(C)=C[C@@H]23)[C@@H]2C(C)(C)[C@]12OC(=O)CCC", "note": "[PdBu]", "values": [{"measurement": "effect on Aβ", "setting": "Aβ in COS cells", "result": "increase in Aβ"}]}, {"compound": "epoxystearic acid [BR-116]", "values": [{"measurement": "effect on PKC", "setting": "PKCε; FIG. 8", "result": "little or no effect"}]}]}
